Source: patent US20240360177A1, “PEPTIDES WITH ANTIMICROBIAL ACTIVITIES” (priority 2021, published 2024)
Values after ≈ are worked out from the molar mass of the structure shown. Read-outs that look alike come from different tables or passages of the source. Non-standard residues stand in square brackets, D forms with d. Residues, ends and D or L forms follow the SMILES beside them. βAla = NCCC(=O)O

Key:
C. parapsilosis = details: 24 h
C. neoformans = details: 72 h
in vitro = details: human, EC50 cytotoxicity in HepG2, intracellular ATP assay
[1] = Acute toxicity in CD-1 mice; details: both sexes, mouse, in vivo
Procedure: Acute toxicity and subacute toxicity of ACPs were tested in CD-1 mice. In the acute toxicity study, groups of CD-1 male or female mice were administered single intravenous or intraperitoneal escalating doses (n=2-3 per dose) of the peptides dissolved in normal saline for injection or in phosphate buffered saline. The intravenous dose was administered via tail vein with a slow push over 15-20 seconds. Doses were escalated based on tolerability.

Scedosporium spp. = details: 72 h
C. dubliniensis = details: 24 h
Fusarium spp. = details: 48 h
C. gattii = details: 72 h
C. auris = details: 24 h
C. albicans = details: 24 h
C. glabrata = details: 24 h
C. krusei = details: 24 h
C. tropicalis = details: 24 h
[2] = test system: Staphylococcus aureus ATCC 29213; format: cell-based
[3] = test system: Pseudomonas aeruginosa ATCC 27853; format: cell-based
[4] = test system: Escherichia coli ATCC 25922; format: cell-based

SMILES: N=C(N)NCCC[C@@H](N)C(=O)N[C@H](CCCNC(=N)N)C(=O)N[C@H](CCCNC(=N)N)C(=O)NCCC(=O)N[C@H](CCCNC(=N)N)C(=O)N[C@H](CCCNC(=N)N)C(=O)N[C@H](CCCNC(=N)N)C(=O)NCCC(=O)N[C@H](CCCNC(=N)N)C(=O)N[C@H](CCCNC(=N)N)C(=O)N[C@H](CCCNC(=N)N)C(=O)N[C@H](CCCNC(=N)N)C(=O)NCCC(=O)N[C@H](CCCNC(=N)N)C(=O)N[C@H](CCCNC(=N)N)C(=O)N[C@H](CCCNC(=N)N)C(=O)N[C@H](CCCNC(=N)N)C(N)=O [SEQ ID NO: 14, rrr-(Apr)-rrr-(Apr)-rrrr-(Apr)-rrrr-NH2] (H-[dR][dR][dR][βAla][dR][dR][dR][βAla][dR][dR][dR][dR][βAla][dR][dR][dR][dR]-NH2)
- MIC C. parapsilosis (C. parapsilosis): 0.12 µg/mL (≈ 0.0497 µM)
- MIC C. neoformans (C. neoformans): 0.5 µg/mL (≈ 0.207 µM)
- EC50 (in vitro): > 300 µg/mL
- MTD ([1]; single IP dose, read-out: Tolerated single intraperitoneal dose): 10 to 15 mg/kg
- MTD ([1]; single IV dose via tail vein, read-out: Tolerated single intravenous dose): 5 to 7.5 mg/kg
- MIC Range Scedosporium spp. (Scedosporium spp.): 0.25 µg/mL (≈ 0.103 µM)
- MIC C. dubliniensis (C. dubliniensis): 0.5 µg/mL (≈ 0.207 µM)
- MIC Range Fusarium spp. (Fusarium spp.): 0.12 to 0.25 µg/mL
- MIC C. gattii (C. gattii): 0.25 µg/mL (≈ 0.103 µM)
- MIC C. auris (C. auris): 0.5 µg/mL (≈ 0.207 µM)
- MIC C. albicans (C. albicans): 1 µg/mL (≈ 0.414 µM)
- MIC C. glabrata (C. glabrata): 0.5 µg/mL (≈ 0.207 µM)
- MIC C. krusei (C. krusei): 0.5 µg/mL (≈ 0.207 µM)
- MIC C. tropicalis (C. tropicalis): 0.25 µg/mL (≈ 0.103 µM)
- MIC50 Candida species (Candida spp.): 0.5 µg/mL (≈ 0.207 µM)
- MIC90 Candida species (Candida spp.): 2 µg/mL (≈ 0.828 µM)

SMILES: N=C(N)NCCC[C@@H](N)C(=O)N[C@@H](CCCNC(=N)N)C(=O)N[C@H](CCCNC(=N)N)C(=O)NCCC(=O)N[C@H](CCCNC(=N)N)C(=O)N[C@@H](CCCNC(=N)N)C(=O)N[C@H](CCCNC(=N)N)C(=O)NCCC(=O)N[C@H](CCCNC(=N)N)C(=O)N[C@@H](CCCNC(=N)N)C(=O)N[C@H](CCCNC(=N)N)C(=O)N[C@@H](CCCNC(=N)N)C(=O)NCCC(=O)O [SEQ ID NO: 17, rRr-(Apr)-rRr-(Apr)-rRrR-(Apr)] (H-[dR]R[dR][βAla][dR]R[dR][βAla][dR]R[dR]R[βAla]-OH)
- MIC C. parapsilosis (C. parapsilosis): 2 µg/mL (≈ 1.12 µM)
- MIC C. neoformans (C. neoformans): 64 µg/mL (≈ 35.7 µM)
- EC50 (in vitro): > 300 µg/mL
- MIC C. dubliniensis (C. dubliniensis): 8 µg/mL (≈ 4.46 µM)
- MIC Staphylococcus aureus [2]: >64 µg/mL
- MIC Range Fusarium spp. (Fusarium spp.): 16 to 64 µg/mL
- MIC Pseudomonas aeruginosa [3]: >64 µg/mL
- MIC C. gattii (C. gattii): 8 µg/mL (≈ 4.46 µM)
- MIC Escherichia coli [4]: >64 µg/mL
- MIC C. auris (C. auris): >64 µg/mL
- MIC C. albicans (C. albicans): 4 µg/mL (≈ 2.23 µM)
- MIC C. glabrata (C. glabrata): >64 µg/mL
- MIC C. krusei (C. krusei): 1 µg/mL (≈ 0.558 µM)
- MIC C. tropicalis (C. tropicalis): 4 µg/mL (≈ 2.23 µM)

SMILES: N=C(N)NCCC[C@H](NC(=O)[C@@H](CCCNC(=N)N)NC(=O)[C@H](CCCNC(=N)N)NC(=O)[C@@H](CCCNC(=N)N)NC(=O)[C@@H]1CCCN1C(=O)[C@H](CCCNC(=N)N)NC(=O)[C@@H](CCCNC(=N)N)NC(=O)[C@H](CCCNC(=N)N)NC(=O)[C@@H](CCCNC(=N)N)NC(=O)[C@@H]1CCCN1C(=O)[C@@H](CCCNC(=N)N)NC(=O)[C@H](CCCNC(=N)N)NC(=O)[C@@H](CCCNC(=N)N)NC(=O)[C@@H]1CCCN1C(=O)[C@@H](CCCNC(=N)N)NC(=O)[C@H](CCCNC(=N)N)NC(=O)[C@@H](CCCNC(=N)N)NC(=O)[C@@H](N)CCCNC(=N)N)C(N)=O [SEQ ID NO: 63, RrRr-P-rRr-P-rRrR-P-rRrR-NH2] (H-R[dR]R[dR]P[dR]R[dR]P[dR]R[dR]RP[dR]R[dR]R-NH2)
- MIC C. parapsilosis (C. parapsilosis): 0.5 µg/mL (≈ 0.189 µM)
- EC50 (in vitro): > 300 µg/mL
- MIC C. dubliniensis (C. dubliniensis): 0.5 µg/mL (≈ 0.189 µM)
- MIC C. auris (C. auris): 0.5 µg/mL (≈ 0.189 µM)
- MIC C. albicans (C. albicans): 0.5 µg/mL (≈ 0.189 µM)
- MIC C. glabrata (C. glabrata): 0.5 µg/mL (≈ 0.189 µM)
- MIC C. krusei (C. krusei): 0.5 µg/mL (≈ 0.189 µM)
- MIC C. tropicalis (C. tropicalis): 0.5 µg/mL (≈ 0.189 µM)
- Activity at 24 h MIC50 against Candida spp. (Candida spp.): 0.5 µg/mL
- Activity at 24 h MIC90 against Candida spp. (Candida spp.): 1 µg/mL
- Activity at 48 h MIC50 against Candida spp. (Candida spp.): 1 µg/mL
- Activity at 48 h MIC90 against Candida spp. (Candida spp.): 2 µg/mL

SMILES: N=C(N)NCCC[C@H](NC(=O)[C@@H](CCCNC(=N)N)NC(=O)[C@H](CCCNC(=N)N)NC(=O)[C@@H](CCCNC(=N)N)NC(=O)[C@@H]1CCCN1C(=O)[C@H](CCCNC(=N)N)NC(=O)[C@@H](CCCNC(=N)N)NC(=O)[C@H](CCCNC(=N)N)NC(=O)[C@@H](CCCNC(=N)N)NC(=O)[C@@H]1CCCN1C(=O)[C@H](CCCNC(=N)N)NC(=O)[C@@H](CCCNC(=N)N)NC(=O)[C@H](CCCNC(=N)N)NC(=O)[C@@H](CCCNC(=N)N)NC(=O)[C@@H]1CCCN1C(=O)[C@@H](CCCNC(=N)N)NC(=O)[C@H](CCCNC(=N)N)NC(=O)[C@@H](CCCNC(=N)N)NC(=O)[C@@H](N)CCCNC(=N)N)C(N)=O [SEQ ID NO: 64, RrRr-P-rRrR-P-rRrR-P-rRrR-NH2] (H-R[dR]R[dR]P[dR]R[dR]RP[dR]R[dR]RP[dR]R[dR]R-NH2)
- MIC C. parapsilosis (C. parapsilosis): 0.5 µg/mL (≈ 0.178 µM)
- EC50 (in vitro): > 300 µg/mL
- MIC C. dubliniensis (C. dubliniensis): 0.5 µg/mL (≈ 0.178 µM)
- MIC C. auris (C. auris): 0.5 µg/mL (≈ 0.178 µM)
- MIC C. albicans (C. albicans): 0.5 µg/mL (≈ 0.178 µM)
- MIC C. glabrata (C. glabrata): 0.5 µg/mL (≈ 0.178 µM)
- MIC C. krusei (C. krusei): 0.5 µg/mL (≈ 0.178 µM)
- MIC C. tropicalis (C. tropicalis): 0.5 µg/mL (≈ 0.178 µM)
- Activity at 24 h MIC50 against Candida spp. (Candida spp.): 0.5 µg/mL
- Activity at 24 h MIC90 against Candida spp. (Candida spp.): 1 µg/mL
- Activity at 48 h MIC50 against Candida spp. (Candida spp.): 0.5 µg/mL
- Activity at 48 h MIC90 against Candida spp. (Candida spp.): 2 µg/mL

SMILES: N=C(N)NCCC[C@H](NC(=O)[C@@H](CCCNC(=N)N)NC(=O)[C@@H](N)CCCNC(=N)N)C(=O)N[C@H](CCCNC(=N)N)C(=O)N1CCC[C@H]1C(=O)N[C@H](CCCNC(=N)N)C(=O)N[C@@H](CCCNC(=N)N)C(=O)N[C@H](CCCNC(=N)N)C(=O)N1CCC[C@H]1C(=O)N[C@@H](CCCNC(=N)N)C(=O)N[C@H](CCCNC(=N)N)C(=O)N[C@@H](CCCNC(=N)N)C(=O)N1CCC[C@H]1C(=O)N[C@H](CCCNC(=N)N)C(=O)N[C@@H](CCCNC(=N)N)C(=O)N[C@H](CCCNC(=N)N)C(N)=O [SEQ ID NO: 65, RrRr-P-rRr-P-RrR-P-rRr-NH2] (H-R[dR]R[dR]P[dR]R[dR]PR[dR]RP[dR]R[dR]-NH2)
- MIC C. parapsilosis (C. parapsilosis): 0.25 µg/mL (≈ 0.107 µM)
- EC50 (in vitro): > 300 µg/mL
- MIC C. dubliniensis (C. dubliniensis): 0.5 µg/mL (≈ 0.214 µM)
- MIC C. auris (C. auris): 0.5 µg/mL (≈ 0.214 µM)
- MIC C. albicans (C. albicans): 0.25 µg/mL (≈ 0.107 µM)
- MIC C. glabrata (C. glabrata): 0.5 µg/mL (≈ 0.214 µM)
- MIC C. krusei (C. krusei): 0.5 µg/mL (≈ 0.214 µM)
- MIC C. tropicalis (C. tropicalis): 0.5 µg/mL (≈ 0.214 µM)
- Activity at 24 h MIC50 against Candida spp. (Candida spp.): 0.5 µg/mL
- Activity at 24 h MIC90 against Candida spp. (Candida spp.): 2 µg/mL
- Activity at 48 h MIC50 against Candida spp. (Candida spp.): 0.5 µg/mL
- Activity at 48 h MIC90 against Candida spp. (Candida spp.): 32 µg/mL
